Structures are written as SMILES. Several values for one entry are separate records, joined by “and”; a condition that tells them apart may be missing. Equal entries are not always repeated.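 Exposure lasted 48 hours, with cells grown in 96-well plates and compounds tested at five concentrations. At the GI50, growth is halved. TGI denotes the concentration required for complete inhibition of growth.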

Common to all, as to assay: DTP human tumour cell line panel, 48 h
Experiment [1] relates to HOP-62 NSCLC.
The test system of experiment [2] is TK-10 renal.
The test system of experiment [3] is KM12 colon.
In experiment [4] the test system is RPMI-8226 leukemia.
The test system of experiment [5] is OVCAR-3 ovarian.
The subject of experiment [6] is BT-549 breast.
Experiment [7] has as its system MCF7 breast.
Experiment [8] relates to MDA-MB-231 breast.
In experiment [9] the test system is IGROV1 ovarian.
The subject of experiment [10] is HCC-2998 colon.

With `C[C@]12CCC3c4ccc(O)cc4CCC3C1CC[C@@]2(O)CNC(=O)/C=C/c1ccc(O)c(O)c1` (some centres undefined), the GI50 was 6.78 µM in experiment [1]; 2.52 µM in experiment [2]; 2.89 µM in experiment [3]; 8.56 µM in [4]; 2.89 µM in experiment [5]; 3.03 µM in [6]. The GI50 in experiment [7] is 12.4 µM; in experiment [8] it was 3.58 µM; in experiment [9], 2.47 µM; in [10], 10.8 µM. Also, the TGI amounted to 22.6 µM in experiment [1]; 13.7 µM in [2]; 11.1 µM in experiment [3]; 50.7 µM in [4]; 21.5 µM in experiment [5]; 15.3 µM in [6]. Also, the TGI in experiment [7] is 45.4 µM; in experiment [8], 16.4 µM; in [9], 7.26 µM; in experiment [10], 23.4 µM.

As for `O=C1CCCCN1c1ccccc1C#C/C=C\C#Cc1ccccc1C(F)(F)F`, the GI50 is 0.899 µM in [1]; 3.35 µM in experiment [2]; 1.8 µM in experiment [3]; 1.9 µM in [4]; 0.879 µM in experiment [5]; 2.59 µM in [6]. The GI50 in experiment [7] was 2.5 µM; in experiment [8], 1.16 µM; in experiment [9], 1.12 µM; in experiment [10] it was 0.951 µM. In addition, the total growth inhibition concentration (TGI) in experiment [1] was 2.94 µM; in experiment [2], 30.8 µM; in [3], 11.4 µM; in experiment [4], 6.71 µM; in [5], 2.4 µM; in experiment [6] it was 14.5 µM. In addition, the TGI in experiment [7] was > 50 µM; in experiment [8], 2.71 µM; in experiment [9], 3.63 µM; in experiment [10] it was 2.5 µM.

Take `CC(C)[C@@H]1C=C2CC[C@H]3[C@](C)(CN)CCC[C@]3(C)[C@H]2CC1`: the GI50 is 3.33 µM in experiment [1]; 12 µM in [2]; 1.76 µM in [3]; 2.57 µM in [4]; 2.8 µM in [5]; 16.5 µM in experiment [6]. The GI50 in experiment [7] is 1.62 µM; in experiment [8], 2.12 µM; in experiment [9] it was 1.93 µM; in [10], 1.63 µM. Moreover, the TGI in [1] came out at 10.9 µM; in experiment [2], 25.3 µM; in experiment [3], 3.23 µM; in experiment [4], 11.7 µM; in [5] it was 9.22 µM; in experiment [6], 35.4 µM. Moreover, the TGI is 3.06 µM in experiment [7], 5.47 µM in experiment [8], 4.09 µM in [9] and 3.03 µM in experiment [10].

As to `CCN1C(=O)N(c2ccccc2)C2NC(=S)N(/N=C/C=C/c3ccccc3OC)C21` (centres undefined), the concentration for 50% growth inhibition (GI50) is 0.127 µM in experiment [1]; 23.3 µM in experiment [2]; 0.101 µM in experiment [3]; 0.126 µM in experiment [4]; 0.0778 µM in experiment [5]; 0.112 µM in [6]. Besides, the GI50 in [7] was 0.0942 µM; in [8] it was 0.0921 µM; in experiment [9], 0.136 µM; in [10], 0.111 µM. Also, the TGI in [1] is > 58.5 µM; in experiment [2], > 100 µM; in experiment [3], > 36.1 µM; in [4], 14.2 µM; in experiment [5], 0.221 µM; in [6], 3.41 µM. In addition, the total growth inhibition concentration (TGI) in experiment [7] was > 64.3 µM; in [8], 5.13 µM; in experiment [9], 10.8 µM; in experiment [10], > 100 µM.

Turning to `O=C(Nc1ccc(Oc2ccc(Nc3nc4ccccc4s3)cc2)cc1)Nc1ccc(Cl)c(C(F)(F)F)c1`, the GI50 in experiment [1] is 1.82 µM; in experiment [2], 2.3 µM; in experiment [3] it was 1.51 µM; in [4] it was 1.11 µM; in [5], 1.54 µM; in experiment [6], 1.54 µM. Also, the GI50 in experiment [7] is 1.35 µM; in experiment [8], 1.37 µM; in experiment [9] it was 1.67 µM; in experiment [10], 1.87 µM. Further, the TGI in [1] worked out at 4.03 µM; in experiment [2], 5.35 µM; in experiment [3], 3.34 µM; in experiment [4], 4.34 µM; in experiment [5] it was 3.98 µM; in experiment [6], 3.05 µM. Moreover, the TGI stood at 3.7 µM in [7], 2.86 µM in experiment [8], 3.62 µM in experiment [9] and 3.91 µM in experiment [10].

Consider `N#CC(C#N)=C/C=C(\Sc1nc2ccccc2s1)c1ccc(Cl)cc1`, for which the GI50 in experiment [1] is 14 µM; in [2] it was 6.18 µM; in experiment [3], 8.9 µM; in experiment [5], 4.77 µM; in experiment [6], 11.3 µM; in experiment [7], 7.65 µM. Also, the GI50 in experiment [8] was 5.87 µM; in experiment [9], 4.87 µM; in experiment [10] it was 13.8 µM. Besides, the concentration for total growth inhibition (TGI) in experiment [1] was 30.5 µM; in experiment [2], 15 µM; in [3], 33.6 µM; in experiment [5], 22.9 µM; in experiment [6], 26.2 µM; in [7], > 100 µM. The figures for the TGI in experiment [8], in experiment [9] and in experiment [10] were 22.3 µM, 12.5 µM and 29 µM, respectively.

Take `COc1cc(C2CC(C)(O)Oc3cc4c(cc32)OCO4)cc(OC)c1OC` (centres undefined): the TGI in experiment [1] was > 100 µM; in experiment [2], > 100 µM; in [3], 0.595 µM; in [4], 18.7 µM; in experiment [5] it was 0.679 µM; in [6], > 100 µM. The concentration for total growth inhibition (TGI) in experiment [7] is 23.6 µM; in experiment [8], 0.851 µM; in [9] it was > 100 µM; in experiment [10], 34.8 µM.

Turning to `CCN(Cc1ccc(F)cc1)c1cc(Cl)c(CO)c(Cl)c1`, the GI50 in experiment [1] is 14 µM; in [2] it was 2.58 µM; in [4], 10.7 µM; in experiment [5], 11.7 µM; in experiment [6] it was 13.6 µM; in [7], 13.7 µM. The results for the GI50 in [8], in [9] and in experiment [10] were 13 µM, 4.08 µM and 13.9 µM, respectively. The concentration for total growth inhibition (TGI) in [1] worked out at 27.2 µM; in experiment [2] it was 13.8 µM; in [4], 42.9 µM; in experiment [5], 24.3 µM; in experiment [6], 28.3 µM; in experiment [7] it was 28 µM. In addition, the TGI in experiment [8] was 26.7 µM; in experiment [9], 17.9 µM; in [10], 28.1 µM.

`N#Cc1c[nH]n2c(N=Nc3ccc(Cl)cc3)c(O)nc12`: the GI50 in experiment [1] is 62.7 µM; in experiment [2], 21.3 µM; in experiment [3] it was 29.4 µM; in experiment [4], 25.7 µM; in experiment [5], 40.3 µM; in experiment [6], 28.5 µM. In addition, the GI50 in experiment [7] is 21 µM; in experiment [8] it was 16.2 µM; in [9], 50.5 µM. Also, the total growth inhibition concentration (TGI) in experiment [1] was > 100 µM; in experiment [2], 68.3 µM; in [3], > 100 µM; in experiment [4] it was 95.3 µM; in experiment [5] it was > 100 µM; in experiment [6] it was 77.6 µM. The TGI in [7], in experiment [8] and in experiment [9] was > 100 µM in each case.

In the case of `CC1=C2C(=C[C@@](C)(CO)[C@@H]2O)C(=O)[C@](C)(O)C12CC2`, the TGI in [1] was 0.0263 µM and 0.0432 µM; in experiment [2], 0.106 µM; in experiment [3], 0.105 µM and 0.568 µM; in experiment [4] it was 6.09 µM and 12.3 µM; in [6], 0.0518 µM; in experiment [7], 0.0687 µM. Besides, the TGI in experiment [9] was 0.0583 µM; in experiment [10], 0.0302 µM and 0.018 µM. Also, the GI50 in experiment [4] is 1.15 µM; in experiment [8], 0.503 µM.

For `Oc1[nH]c2ccccc2c1N=Nc1nc(-c2ccc(Br)cc2)cs1`, the TGI in experiment [1] was 28.6 µM; in experiment [2] it was 61.2 µM; in experiment [3], > 100 µM; in [5], 67.7 µM; in experiment [6], 45.6 µM; in experiment [7], > 100 µM. Further, the concentration for total growth inhibition (TGI) in experiment [8] was 62.5 µM; in experiment [9], 23.1 µM; in [10] it was > 100 µM.

For the compound `COc1cc(-c2ccc3cc(OC)c(OC)c(OC)c3c2)cc(OC)c1OC`, the GI50 was 16.1 µM in experiment [1]; 27.9 µM in experiment [2]; 5.93 µM in experiment [3]; > 100 µM in experiment [5]; 30.1 µM in [6]; > 100 µM in experiment [7]. Besides, the GI50 in experiment [8] is 8.91 µM; in experiment [9], 40.4 µM; in experiment [10], > 100 µM. Also, the concentration for total growth inhibition (TGI) in experiment [1] is 75.4 µM; in [2], 84.3 µM; in [3] it was > 100 µM; in experiment [5], > 100 µM; in [6], > 100 µM; in experiment [7] it was > 100 µM. Further, the total growth inhibition concentration (TGI) in [8], in experiment [9] and in [10] was > 100 µM throughout.

Turning to `O=C(O)c1nc2nc(Cl)c(Cl)nc2[nH]1`, the TGI in experiment [1], in [2], in experiment [3], in experiment [4], in experiment [5] and in experiment [6] was > 100 µM each time. The TGI in experiment [7], in experiment [8] and in [9] was > 100 µM throughout.

`CCOC(=S)SCC(=O)O`: the TGI in [1], in experiment [2], in [3], in experiment [4], in experiment [5] and in experiment [6] was > 100 µM throughout. In addition, the TGI in experiment [7], in experiment [8] and in experiment [9] was > 100 µM each time.

For orientation: GI50 means the concentration that inhibits growth by half. The TGI is the concentration giving total growth inhibition. A lower TGI goes with greater sensitivity of the cells.

For the origin of these results see PubChem BioAssay (NCI).
